The supplement of paper PMC10307832

Columns and labels:
Experiment in all cases: relative viability (nuclei count vs DMSO), 5 days (fraction); higher = more cells survive
[1] = compound: CN1C=C(C2=CC=CC=C21)/C=C\3/C4=C(C=CC=N4)NC3=O + NC(=O)Nc1cc(-c2cccc(F)c2)sc1C(=O)N[C@H]1CCCNC1 [AZD7762] (partner 0.2 µM)
Summary of the method: (§1)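 For relative viability, nuclei counts in treated wells were divided by those in vehicle wells. Lung cancer cell lines had been pin-tool dosed in 1536-well plates the day after seeding and cultured for 5 days, then fixed and stained in one step (final 0.05% Triton X-100, 1% formaldehyde, 1 ug/ml Hoechst) and imaged at 4×. Doses were one drug alone or a fixed anchor-drug dose plus five library-drug doses (not always all listed) in √10 steps, and values are duplicate-plate medians.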

[2] = compound: CN1C=C(C2=CC=CC=C21)/C=C\3/C4=C(C=CC=N4)NC3=O + CCNC(=O)c1noc(-c2cc(C(C)C)c(O)cc2O)c1-c1ccc(CN2CCOCC2)cc1 [Luminespib] (partner 0.01 µM)
Summary of the method: as §1

Trametinib + Navitoclax = compound: CC(=O)Nc1cccc(-n2c(=O)n(C3CC3)c(=O)c3c(Nc4ccc(I)cc4F)n(C)c(=O)c(C)c32)c1 [Trametinib] + CC1(C)CCC(c2ccc(Cl)cc2)=C(CN2CCN(c3ccc(C(=O)NS(=O)(=O)c4ccc(N[C@H](CCN5CCOCC5)CSc5ccccc5)c(S(=O)(=O)C(F)(F)F)c4)cc3)CC2)C1 [Navitoclax] (partner 0.5 µM)
Summary of the method: as §1

Trametinib + Tozasertib = compound: CC(=O)Nc1cccc(-n2c(=O)n(C3CC3)c(=O)c3c(Nc4ccc(I)cc4F)n(C)c(=O)c(C)c32)c1 [Trametinib] + Cc1cc(Nc2cc(N3CCN(C)CC3)nc(Sc3ccc(NC(=O)C4CC4)cc3)n2)n[nH]1 [Tozasertib] (partner 0.1 µM)
Summary of the method: as §1

| Cell Line | relative viability ([1]; first compound 0.02 µM) | relative viability ([1]; first compound 0.06325 µM) | relative viability ([1]; first compound 0.2 µM) | relative viability ([1]; first compound 0.6325 µM) | relative viability ([1]; first compound 2 µM) | relative viability ([2]; first compound 0.02 µM) | relative viability ([2]; first compound 0.06325 µM) | relative viability ([2]; first compound 0.2 µM) | relative viability ([2]; first compound 0.6325 µM) | relative viability ([2]; first compound 2 µM) | relative viability (Trametinib + Navitoclax; first compound 0.0025 µM) | relative viability (Trametinib + Navitoclax; first compound 0.007906 µM) | relative viability (Trametinib + Navitoclax; first compound 0.025 µM) | relative viability (Trametinib + Navitoclax; first compound 0.07906 µM) | relative viability (Trametinib + Navitoclax; first compound 0.25 µM) | relative viability (Trametinib + Tozasertib; first compound 0.0025 µM) | relative viability (Trametinib + Tozasertib; first compound 0.007906 µM) | relative viability (Trametinib + Tozasertib; first compound 0.025 µM) | relative viability (Trametinib + Tozasertib; first compound 0.07906 µM) | relative viability (Trametinib + Tozasertib; first compound 0.25 µM) |
| --- | --- | --- | --- | --- | --- | --- | --- | --- | --- | --- | --- | --- | --- | --- | --- | --- | --- | --- | --- | --- |
| 201T | 0.578 | 0.662 | 0.761 | 0.668 | 0.658 | 1.01 | 1.06 | 1.12 | 1.03 | 1.15 | 1.17 | 1.1 | 1.13 | 1.08 | 1.09 | 0.985 | 0.835 | 0.795 | 0.798 | 0.653 |
| A549 | – | – | – | – | – | – | – | – | – | – | 1.12 | 0.81 | 0.464 | 0.281 | 0.0636 | – | – | – | – | – |
| A-427 | 0.782 | 0.753 | – | 0.729 | 0.802 | 0.849 | 0.902 | – | 1.08 | 1.01 | 0.989 | 0.799 | 0.489 | 0.545 | 0.296 | 0.217 | 0.159 | 0.158 | 0.166 | 0.173 |
| ABC-1 | 0.889 | – | – | 0.708 | 0.874 | – | 0.531 | – | 0.678 | 0.801 | – | – | – | – | – | 0.169 | 0.153 | 0.154 | 0.148 | 0.158 |
| BEN | 0.771 | 0.742 | 0.485 | 0.622 | 0.728 | 0.286 | 0.394 | – | 0.357 | 0.281 | 0.0591 | 0.054 | – | 0.0541 | 0.179 | 0.461 | 0.497 | 0.458 | 0.602 | 0.476 |
| CAL-12T | 0.586 | 0.612 | 0.623 | 0.643 | 0.612 | 0.22 | 0.561 | 0.48 | 0.432 | 0.381 | 1.04 | 0.831 | 0.554 | 0.738 | 0.492 | 0.275 | 0.273 | 0.196 | 0.199 | 0.202 |
| COR-L23 | – | – | – | – | – | 0.623 | 0.632 | 0.702 | 0.699 | 0.789 | 0.977 | 1.02 | 1.04 | 0.694 | 0.475 | 0.193 | 0.208 | 0.165 | 0.178 | 0.149 |
| COR-L 105 | – | – | – | – | – | 0.634 | 0.616 | 0.625 | 0.804 | 0.85 | 0.594 | 0.517 | 0.417 | 0.387 | 0.324 | 0.287 | 0.387 | 0.338 | 0.31 | 0.223 |
| Calu-6 | – | – | – | – | – | – | – | – | – | – | 0.601 | 0.295 | 0.177 | 0.129 | 0.127 | – | – | – | – | – |
| ChaGo-K-1 | 0.703 | 0.868 | 0.723 | 0.848 | 0.877 | 0.54 | 0.56 | 0.522 | 0.482 | 0.59 | 1.07 | 0.803 | 1.08 | 0.508 | 0.556 | 0.232 | 0.223 | 0.214 | 0.201 | 0.191 |
| EBC-1 | – | – | – | – | – | – | – | – | – | – | 0.274 | 0.218 | 0.157 | 0.141 | 0.179 | – | – | – | – | – |
| EKVX | 0.676 | – | – | 0.644 | 0.607 | 0.79 | 0.784 | 0.821 | 0.865 | 0.868 | 0.728 | 0.627 | 0.37 | 0.376 | 0.371 | 0.387 | 0.397 | 0.335 | 0.227 | 0.26 |
| EMC-BAC-2 | 0.963 | 0.963 | 0.91 | 1.03 | 1 | 1.19 | 1.18 | 1.29 | 1.17 | 1.19 | 1.07 | 0.956 | 1.06 | 0.891 | 0.817 | 0.369 | 0.354 | 0.41 | 0.457 | 0.328 |
| EPLC-272H | 0.321 | 0.244 | – | 0.132 | 0.174 | 0.156 | 0.309 | 0.169 | – | 0.383 | 0.962 | 0.914 | 0.455 | 0.709 | 0.359 | 0.207 | 0.203 | 0.212 | 0.149 | 0.266 |
| H3255 | 1.02 | 0.86 | 0.848 | 0.954 | 0.844 | 1.03 | 1 | 0.786 | 0.86 | 0.77 | 0.468 | 0.316 | 0.251 | 0.161 | 0.18 | 0.572 | 0.777 | 0.579 | 0.514 | 0.411 |
| HARA | 0.197 | 0.368 | – | 0.358 | 0.345 | 0.347 | 0.951 | – | 0.558 | 0.676 | 0.984 | 1.1 | 1.14 | 1.06 | 0.976 | 0.12 | 0.101 | 0.0849 | 0.108 | 0.0591 |
| HCC-15 | 1.11 | 1.13 | 1.37 | 1.22 | 1.31 | 0.172 | 0.344 | 0.303 | 0.353 | 0.36 | 0.505 | 0.336 | 0.243 | 0.247 | 0.189 | 0.345 | 0.234 | 0.161 | 0.148 | 0.15 |
| HCC-44 | 0.937 | 1.02 | 0.94 | 1 | 0.956 | 1.03 | 0.925 | – | 1.02 | 1.02 | 1.03 | 0.751 | 0.865 | 0.805 | 0.446 | 0.897 | 0.519 | 0.801 | 0.594 | 0.228 |
| HCC-78 | 0.502 | 0.546 | 0.6 | 0.608 | 0.348 | – | – | – | – | – | 0.728 | 0.591 | 0.558 | 0.624 | 0.42 | 0.426 | 0.416 | 0.38 | 0.452 | 0.36 |
| HCC-366 | 0.29 | 0.278 | 0.0805 | 0.178 | 0.24 | – | – | – | – | – | 0.977 | 0.926 | 0.7 | 0.531 | 0.275 | 0.117 | 0.0857 | 0.0884 | 0.07 | 0.0695 |
